Assay results published in patent US6015838A, “Aqueous film-forming foam compositions” (3M Innovative Properties Company, priority 1996, dated 2000).

test: Surface tension and critical micelle concentration (CMC) of aqueous surfactant solutions; format: physicochemical; settings: Table 3; deionized water
Source text: Critical Micelle Concentration (CMC): The critical micelle concentration is defined as the concentration at which further surface tension is no longer lowered with increasing levels of surfactant. […] Surface tension is then plotted vs. log concentration and the data points are connected. The resulting curve has a nearly horizontal flat portion at concentrations above the CMC and has a negative steep slope at concentrations below the CMC. The CMC is defined as the lowest surfactant concentration in the horizontal flat portion of the curve.
(§1) Then the critical micelle concentration (CMC) was determined for each surfactant.
as §1

| Molecule | solubility | CMC |
| --- | --- | --- |
| C[N+](C)([O-])CCCNC(=O)C(F)(C(F)(F)C(F)(F)C(F)(F)F)C(F)(F)C(F)(F)C(F)(F)C(F)(F)C(F)(F)C(F)(F)C(F)(F)F (stereo not shown) [Example E7, C7 F15 CF(C3 F7)CONH(CH2)3 N^+ (CH3)2 O^-] | low solub. |  |
| O=C(NCCC[N+]1([O-])CCOCC1)C(F)(C(F)(F)F)C(F)(F)C(F)(F)C(F)(F)C(F)(F)C(F)(F)C(F)(F)C(F)(F)F (stereo not shown) [Example E9] | low solub. |  |
| O=C(NCCC[N+]1(CCO)CCOCC1)C(F)(C(F)(F)F)C(F)(F)C(F)(F)C(F)(F)C(F)(F)C(F)(F)C(F)(F)C(F)(F)F (stereo not shown) [Example F5] |  | 1000 ppm |
| O=C([O-])CC[N+]1(CCCNC(=O)C(F)(C(F)(F)F)C(F)(F)C(F)(F)C(F)(F)C(F)(F)C(F)(F)C(F)(F)C(F)(F)F)CCOCC1 (stereo not shown) [Example K3] |  | 1000 ppm |

same assay, conditions: Table 3; deionized water, at CMC

| Molecule | Surf Tens. (surface tension at the CMC) |
| --- | --- |
| C[N+](C)([O-])CCCNC(=O)C(F)(C(F)(F)F)C(F)(F)C(F)(F)C(F)(F)C(F)(F)C(F)(F)C(F)(F)C(F)(F)F (stereo not shown) [Example E1, C7 F15 CF(CF3)CONH(CH2)3 N^+ (CH3)2 O^-] | 16.3 dynes/cm |
| C[N+](C)([O-])CCCNC(=O)C(F)(C(F)(F)F)C(F)(F)C(F)(F)C(F)(F)C(F)(F)C(F)(F)F (stereo not shown) [Example E2, C5 F11 CF(CF3)CONH(CH2)3 N^+ (CH3)2 O^-] | 17.5 dynes/cm |
| C[N+](C)([O-])CCCNC(=O)C(F)(C(F)(F)F)C(F)(F)C(F)(F)C(F)(F)C(F)(F)C(F)(F)C(F)(F)F (stereo not shown) [Example E3, C6 F13 CF(CF3)CONH(CH2)3 N^+ (CH3)2 O^-] | 16.6 dynes/cm |
| C[N+](C)([O-])CCCNC(=O)C(F)(C(F)(F)F)C(F)(F)C(F)(F)C(F)(F)C(F)(F)C(F)(F)C(F)(F)C(F)(F)C(F)(F)F (stereo not shown) [Example E4, C8 F17 CF(CF3)CONH(CH2)3 N^+ (CH3)2 O^-] | 16.5 dynes/cm |
| C[N+](C)([O-])CCCNC(=O)C(F)(C(F)(F)F)C(F)(F)C(F)(F)C(F)(F)C(F)(F)C(F)(F)C(F)(F)C(F)(F)C(F)(F)C(F)(F)C(F)(F)F (stereo not shown) [Example E5, C10 F21 CF(CF3)CONH(CH2)3 N^+ (CH3)2 O^-] | 17.1 dynes/cm |
| C[N+](C)([O-])CCCN(CCO)C(=O)C(F)(C(F)(F)F)C(F)(F)C(F)(F)C(F)(F)C(F)(F)C(F)(F)C(F)(F)C(F)(F)F (stereo not shown) [Example E8, C7 F15 CF(CF3)CON(C2 H4 OH)(CH2)3 N^+ (CH3)2 O^-] | 16.6 dynes/cm |
| O=C(NCCOC(=O)C(F)(C(F)(F)F)C(F)(F)C(F)(F)C(F)(F)C(F)(F)C(F)(F)C(F)(F)C(F)(F)F)c1cc[n+]([O-])cc1 (stereo not shown) [Example E10] | 14.5 dynes/cm |
| O=C(NCCOC(=O)C(F)(C(F)(F)F)C(F)(F)C(F)(F)C(F)(F)C(F)(F)C(F)(F)C(F)(F)F)c1cc[n+]([O-])cc1 (stereo not shown) [Example E11] | 15.5 dynes/cm |
| O=C(OCCc1cccc[n+]1[O-])C(F)(C(F)(F)F)C(F)(F)C(F)(F)C(F)(F)C(F)(F)C(F)(F)C(F)(F)F (stereo not shown) [Example E12] | 18.3 dynes/cm |
| O=C(OCCc1cccc[n+]1[O-])C(F)(C(F)(F)F)C(F)(F)C(F)(F)C(F)(F)C(F)(F)C(F)(F)C(F)(F)C(F)(F)F (stereo not shown) [Example E13] | 15.0 dynes/cm |
| C[n+]1ccc(C(=O)NCCOC(=O)C(F)(C(F)(F)F)C(F)(F)C(F)(F)C(F)(F)C(F)(F)C(F)(F)C(F)(F)C(F)(F)F)cc1 (stereo not shown) [Example F1] | 15.0 dynes/cm |
| C[n+]1ccc(C(=O)NCCOC(=O)C(F)(C(F)(F)F)C(F)(F)C(F)(F)C(F)(F)C(F)(F)C(F)(F)C(F)(F)F)cc1 (stereo not shown) [Example F2] | 15.5 dynes/cm |
| C[N+](C)(CCO)CCCNC(=O)C(F)(C(F)(F)F)C(F)(F)C(F)(F)C(F)(F)C(F)(F)C(F)(F)F (stereo not shown) [Example F3] | 17.0 dynes/cm |
| C[N+](C)(CCO)CCCNC(=O)C(F)(C(F)(F)F)C(F)(F)C(F)(F)C(F)(F)C(F)(F)C(F)(F)C(F)(F)C(F)(F)F (stereo not shown) [Example F4] | 19.0 dynes/cm |
| O=C(NCCC[N+]1(CCO)CCOCC1)C(F)(C(F)(F)F)C(F)(F)C(F)(F)C(F)(F)C(F)(F)C(F)(F)C(F)(F)C(F)(F)F (stereo not shown) [Example F5] | 20.8 dynes/cm |
| CN(C)CCCN(CCCN(C)C)C(=O)C(F)(C(F)(F)F)C(F)(F)C(F)(F)C(F)(F)C(F)(F)C(F)(F)C(F)(F)C(F)(F)F (stereo not shown) [Example F9, C7 F15 CF(CF3)CON[C3 H6 N^+ (CH3)2 H]2 2[^- OOCCH3]] | 22.0 dynes/cm |
| C[N+](C)(CCCNC(=O)C(F)(C(F)(F)F)C(F)(F)C(F)(F)C(F)(F)C(F)(F)C(F)(F)C(F)(F)C(F)(F)F)CCC(=O)[O-] (stereo not shown) [Example K1, C7 F15 CF(CF3)CONH(CH2)3 N^+ (CH3)2 C2 H4 COO^-] | 16.6 dynes/cm |
| O=C([O-])CC[N+]1(CCCNC(=O)C(F)(C(F)(F)F)C(F)(F)C(F)(F)C(F)(F)C(F)(F)C(F)(F)C(F)(F)C(F)(F)F)CCOCC1 (stereo not shown) [Example K3] | 19.2 dynes/cm |
| C[N+](C)(CCCN(CCC[N+](C)(C)CCC(=O)[O-])C(=O)C(F)(C(F)(F)F)C(F)(F)C(F)(F)C(F)(F)C(F)(F)C(F)(F)C(F)(F)C(F)(F)F)CCC(=O)[O-] (stereo not shown) [Example K4] | 23.6 dynes/cm |
| C6 F13 CF(CF3)CON(C3 H6 SO3^-)(CH2)3 N^+ (CH3)2 H [Example K2] | 20.3 dynes/cm |
| C8 F17 CF(CF3)CO(OCH2 CH2)16 OCH3 [Example J1] | 22 dynes/cm |

same assay, conditions: Table 5; deionized water, at CMC

| Molecule | Surf. Tens. (surface tension at the CMC) |
| --- | --- |
| O=C(O)C(F)(C(F)(F)F)C(F)(F)C(F)(F)C(F)(F)C(F)(F)C(F)(F)F (stereo not shown) [Example M15, C5 F11 CF(CF3)COO^- H4 N^+] | 22.1 dynes/cm |
| O=C(O)C(F)(C(F)(F)F)C(F)(F)C(F)(F)C(F)(F)C(F)(F)C(F)(F)C(F)(F)F (stereo not shown) [Example M16, C6 F13 CF(CF3)COO^- H4 N^+] | 17.9 dynes/cm |
| O=C(O)C(F)(C(F)(F)F)C(F)(F)C(F)(F)C(F)(F)C(F)(F)C(F)(F)C(F)(F)C(F)(F)C(F)(F)F (stereo not shown) [Example M17, C8 F17 CF(CF3)COO^- H4 N^+] | 14.7 dynes/cm |
| O=C(O)C(F)(C(F)(F)F)C(F)(F)C(F)(F)C(F)(F)C(F)(F)C(F)(F)C(F)(F)C(F)(F)C(F)(F)C(F)(F)C(F)(F)F (stereo not shown) [Example M18, C10 F21 CF(CF3)COO^- H4 N^+] | 14.8 dynes/cm |
| O=C(O)C(F)(C(F)(F)F)C(F)(F)C(F)(F)C(F)(F)C(F)(F)C(F)(F)C(F)(F)C(F)(F)F (stereo not shown) [Example M20, C7 F15 CF(CF3)COO^- H3 N^+ C2 H4 OH] | 15.0 dynes/cm |
| O=C(O)C(F)(C(F)(F)F)C(F)(F)C(F)(F)C(F)(F)C(F)(F)C(F)(F)C(F)(F)F (stereo not shown) [Example M22, C6 F13 CF(CF3)COO^- K^+] | 17.5 dynes/cm |
| O=C(O)C(F)(C(F)(F)F)C(F)(F)C(F)(F)C(F)(F)C(F)(F)C(F)(F)C(F)(F)C(F)(F)F (stereo not shown) [Example M23, C7 F15 CF(CF3)COO^- K^+] | 15.0 dynes/cm |
| O=C(O)C(F)(C(F)(F)F)C(F)(F)C(F)(F)C(F)(F)C(F)(F)C(F)(F)C(F)(F)C(F)(F)C(F)(F)F (stereo not shown) [Example M24, C8 F17 CF(CF3)COO^- K^+] | 16.4 dynes/cm |
| O=C(O)C(F)(C(F)(F)F)C(F)(F)C(F)(F)C(F)(F)C(F)(F)C(F)(F)C(F)(F)F (stereo not shown) [Example M25, C6 F13 CF(CF3)COO^- Na^+] | 19.8 dynes/cm |
| O=C(O)C(F)(C(F)(F)F)C(F)(F)C(F)(F)C(F)(F)C(F)(F)C(F)(F)C(F)(F)C(F)(F)F (stereo not shown) [Example M26, C7 F15 CF(CF3)COO^- Na^+] | 19.4 dynes/cm |
| O=C(O)C(F)(C(F)(F)F)C(F)(F)C(F)(F)C(F)(F)C(F)(F)C(F)(F)C(F)(F)C(F)(F)F (stereo not shown) [Example M27, C7 F15 CF(CF3)COO^- Li^+] | 24.1 dynes/cm |
| O=C(O)C(F)(C(F)(F)F)C(F)(F)C(F)(F)C(F)(F)C(F)(F)C(F)(F)C(F)(F)C(F)(F)F (stereo not shown) [Example M30, C7 F15 CF(CF3)COO^- 1/2[H3 N^+ C2 H4 NHC2 H4 N^+ H3]] | 16.2 dynes/cm |

test: Thermogravimetric analysis of neat perfluorocarboxylate salts; format: physicochemical; settings: neat salt, 10° C./min, nitrogen
Source text: Thermal degradation measurements were made on a series of neat perfluorocarboxylate salts, including several ax-branched open chain structures (Examples N2-N9), a primarily linear open chain structure (Example N10--Fluorad™ FC-143 Fluorochemical Surfactant, commercially available from 3M Company, St. Paul, Minn.), and a closed chain (i.e., cyclic) structure (Example N11--made by the electrochemical fluorination of benzoic acid and hydrolysis in the presence of KOH, as described in U.S. Pat. No. 2,567,011 (Diesslin et al.)).
The perfluorocarboxylate salts were tested using a Perkin-Elmer TGA 7 thermogravimetric analysis apparatus and a salt sample size of approximately 5 mg, a heating rate of 10° C./min, and a nitrogen gas flow rate of 40-45 mL/min. Using the TGA 7 software, the following temperatures were recorded: (1) the onset temperature of decomposition, (2) the temperature at which 50% of the sample weight was lost, and (3) the temperature at which 90% of the sample weight was lost.

| Molecule | onset temperature of decomposition | temperature for 50% loss | temperature for 90% loss |
| --- | --- | --- | --- |
| O=C(O)C(F)(C(F)(F)F)C(F)(F)C(F)(F)C(F)(F)C(F)(F)C(F)(F)C(F)(F)F (stereo not shown) [Example M16, C6 F13 CF(CF3)COO^- H4 N^+] | 165 °C | 179 °C | 193 °C |
| O=C(O)C(F)(C(F)(F)F)C(F)(F)C(F)(F)C(F)(F)C(F)(F)C(F)(F)C(F)(F)C(F)(F)C(F)(F)F (stereo not shown) [Example M17, C8 F17 CF(CF3)COO^- H4 N^+] | 142 °C | 162 °C | 184 °C |
| O=C(O)C(F)(C(F)(F)F)C(F)(F)C(F)(F)C(F)(F)C(F)(F)C(F)(F)C(F)(F)C(F)(F)C(F)(F)C(F)(F)C(F)(F)F (stereo not shown) [Example M18, C10 F21 CF(CF3)COO^- H4 N^+] | 164 °C | 181 °C | 188 °C |
| O=C(O)C(F)(C(F)(F)C(F)(F)F)C(F)(F)C(F)(F)C(F)(F)C(F)(F)C(F)(F)C(F)(F)F (stereo not shown) [Example M19, C6 F13 CF(C2 F5)COO^- H4 N^+] | 153 °C | 171 °C | 188 °C |
| O=C(O)C1(F)C(F)(F)C(F)(F)C(F)(F)C(F)(F)C1(F)F [reference compound] | 100 °C | 110 °C | 120 °C |

same assay, conditions: neat salt, 10° C./min, nitrogen; listed as N2

| Molecule | onset temperature of decomposition | temperature for 50% loss | temperature for 90% loss |
| --- | --- | --- | --- |
| O=C(O)C(F)(C(F)(F)F)C(F)(F)C(F)(F)C(F)(F)C(F)(F)C(F)(F)F (stereo not shown) [Example M15, C5 F11 CF(CF3)COO^- H4 N^+] | 166 °C | 178 °C | 188 °C |

same assay, conditions: neat salt, 10° C./min, nitrogen; listed as N8

| Molecule | onset temperature of decomposition | temperature for 50% loss | temperature for 90% loss |
| --- | --- | --- | --- |
| O=C(O)C(F)(C(F)(F)F)C(F)(F)C(F)(F)C(F)(F)C(F)(F)C(F)(F)F (stereo not shown) [Example M28, C5 F11 CF(CF3)COO^- Na^+] | 236 °C | 250 °C | 263 °C |
